Legend:
HEK293sieSTAT3(Y640F) [1] = assay: drug sensitivity score (DSS), cytotoxicity CellTox Green (DSS (dimensionless)); higher = more cytotoxic; extreme values may be limits of the assay; conditions: 72 h; STAT3 variant: Y640F (constitutively active)
Outline: (§1)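 HEK293 cells with a STAT3-dependent luciferase reporter, overexpressing either wild-type or mutant STAT3, were dispensed (20 μl at 100,000 cells/ml) into 384-well plates holding compounds acoustically pre-plated at 5 concentrations in 10-fold dilutions. The plates were kept for 72 hours at 37°C and 5% CO2, then CellTox Green fluorescence (485/520 nm) followed by CellTiter-Glo luminescence was read on a PHERAstar FS. Breeze was used to compute a drug sensitivity score from the dose-response curve area after normalisation to negative and positive control wells, and each value comes from one representative of two experiments.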

HEK293sieSTAT3(wt) [2] = assay: as above; conditions: 72 h; STAT3 variant: wild type
Outline: as §1

HEK293sieSTAT3(Y640F) [3] = assay: drug sensitivity score (DSS), viability CellTiter-Glo (DSS (dimensionless)); higher = more growth inhibition; extreme values may be limits of the assay; conditions: 72 h; STAT3 variant: Y640F (constitutively active)
Outline: as §1

HEK293sieSTAT3(wt) [4] = assay: as above; conditions: 72 h; STAT3 variant: wild type
Outline: as §1

Row | Structure (SMILES) | drug sensitivity score (HEK293sieSTAT3(Y640F) [1]) | drug sensitivity score (HEK293sieSTAT3(wt) [2]) | drug sensitivity score (HEK293sieSTAT3(Y640F) [3]) | drug sensitivity score (HEK293sieSTAT3(wt) [4])
1 | CC[C@@]1(O)C(=O)OCc2c1cc1n(c2=O)Cc2cc3c(CN(C)C)c(O)ccc3nc2-1 [Topotecan] (top concentration tested 10000 nM) | 8.8 | 13 | 28.1 | 27
2 | CCN(CC)CCN(Cc1ccc(-c2ccc(C(F)(F)F)cc2)cc1)C(=O)Cn1c(SCc2ccc(F)cc2)nc(=O)c2c1CCC2 [Darapladib] (top concentration tested 1000 nM) | 1.32 | 0.65 | 1.89 | 1.03
3 | CN1CCN(c2ccc3nc(-c4c(N)c5c(F)cccc5[nH]c4=O)[nH]c3c2)CC1 [Dovitinib] (top concentration tested 10000 nM) | 0 | 0 | 0.03 | 0
4 | CC[C@@H]1C(=O)N(C)c2cnc(Nc3ccc(C(=O)N[C@H]4CC[C@H](N5CCN(CC6CC6)CC5)CC4)cc3OC)nc2N1C(C)C [Volasertib] (top concentration tested 1000 nM) | 12.6 | 21.4 | 22.1 | 21.7
5 | CC1(C)CNc2cc(NC(=O)c3cccnc3NCc3ccncc3)ccc21 [Motesanib] (top concentration tested 10000 nM) | 0.35 | 0.6 | 2.6 | 1.53
6 | CC(=O)c1cnc2ccc(-c3cc(Cl)c(O)c(Cl)c3)nc2c1N[C@H]1CC[C@H](CN(C)C)CC1 [OTSSP167] (top concentration tested 1000 nM) | 5.22 | 5.73 | 21.1 | 21.2
7 | COc1cc(Nc2ncc(F)c(Nc3ccc4c(n3)NC(=O)C(C)(C)O4)n2)cc(OC)c1OC [Tamatinib] (top concentration tested 10000 nM) | 5.91 | 8.52 | 2.55 | 3.72
8 | O=c1cc(N2CCOCC2)oc2c(-c3ccccc3)cccc12 (top concentration tested 100000 nM) | 2.63 | 5.12 | 10.6 | 11.8
9 | CC(O)(CS(=O)(=O)c1ccc(F)cc1)C(=O)Nc1ccc(C#N)c(C(F)(F)F)c1 (stereo not given) [Bicalutamide] (top concentration tested 10000 nM) | 0 | 0 | 3.98 | 4.54
10 | O=C(Nc1nc2cccc(-c3ccc(CN4CCS(=O)(=O)CC4)cc3)n2n1)C1CC1 [Filgotinib] (top concentration tested 10000 nM) | 5.91 | 6.22 | 8.86 | 6.84
11 | c1ccc(Cn2c(-c3ccc(OC[C@H](C4CCNCC4)n4c(-c5ccccc5)nc5ccccc54)cc3)nc3ccccc32)cc1 [deltarasin] (top concentration tested 10000 nM) | 7.78 | 8.33 | 7.04 | 8.74
12 | CC(C)(C)c1nc(-c2cccc(NS(=O)(=O)c3c(F)cccc3F)c2F)c(-c2ccnc(N)n2)s1 [Dabrafenib] (top concentration tested 2500 nM) | 0 | 0 | 0 | 0
13 | O=c1[nH]cc(F)c(=O)[nH]1 [Fluorouracil] (top concentration tested 10000 nM) | 0 | 0 | 6.62 | 6.27
14 | O=C(CCBr)N1CCN(C(=O)CCBr)CC1 [Pipobroman] (top concentration tested 10000 nM) | 0 | 0 | 6.86 | 1.43
15 | CC(=O)NCC(=O)N1[C@@H]2CC[C@H]1c1ccc(Nc3ncc(C(F)(F)F)c(NC4CCC4)n3)cc12 (top concentration tested 10000 nM) | 1.98 | 8.9 | 13.2 | 16.8
16 | CC(C)(C#N)c1cc(Cn2cncn2)cc(C(C)(C)C#N)c1 [Anastrozole] (top concentration tested 10000 nM) | 0 | 0 | 0.01 | 0
17 | COCC(=O)NC/C=C/c1ccc2ncnc(Nc3ccc(Oc4ccc(C)nc4)c(C)c3)c2c1 (top concentration tested 10000 nM) | 0 | 2.66 | 1.25 | 3.61
18 | NC(=O)c1cccc2cn(-c3ccc([C@@H]4CCCNC4)cc3)nc12 [Niraparib] (top concentration tested 10000 nM) | 1.69 | 9.84 | 8.57 | 13.3
19 | CN(C)/N=N/c1[nH]cnc1C(N)=O [Dacarbazine] (top concentration tested 10000 nM) | 0 | 0 | 0.02 | 2.09
20 | CCc1c2c(nc3ccc(OC(=O)N4CCC(N5CCCCC5)CC4)cc13)-c1cc3c(c(=O)n1C2)COC(=O)[C@]3(O)CC [Irinotecan] (top concentration tested 10000 nM) | 2.17 | 6.44 | 12.2 | 14.5
21 | Cn1nnc2c(C(N)=O)ncn2c1=O [Temozolomide] (top concentration tested 100000 nM) | 0.32 | 0 | 0 | 0.36
22 | O=c1[nH]c(C2CCCN2)nc2c1oc1ccc(Cl)cc12 (stereo not given) (top concentration tested 10000 nM) | 0 | 0 | 5.66 | 6.39
23 | COc1cc(Nc2c(C#N)cnc3cc(OCCCN4CCN(C)CC4)c(OC)cc23)c(Cl)cc1Cl [Bosutinib] (top concentration tested 10000 nM) | 7.59 | 7.02 | 7.76 | 8.54

Row | Structure (SMILES) | drug sensitivity score (HEK293sieSTAT3(Y640F) [1]) | drug sensitivity score (HEK293sieSTAT3(wt) [2]) | drug sensitivity score (HEK293sieSTAT3(Y640F) [3]) | drug sensitivity score (HEK293sieSTAT3(wt) [4])
24 | CCN1CCN(Cc2ccc(-c3cc4c(N[C@H](C)c5ccccc5)ncnc4[nH]3)cc2)CC1 [NVP-AEE788] (top concentration tested 2500 nM) | 0 | 0.32 | 1.43 | 1.25
25 | CC(C)C[C@@H](C(=O)N[C@H](C(=O)OC1CCCC1)c1ccccc1)[C@H](O)C(=O)NO [Tosedostat] (top concentration tested 10000 nM) | 1.4 | 8.66 | 3.46 | 6.78
26 | Nc1cc(F)ccc1NC(=O)/C=C/c1cnn(C/C=C/c2ccccc2)c1 [RGFP966] (top concentration tested 10000 nM) | 0 | 0 | 5.46 | 6.28
27 | COc1cc(NS(C)(=O)=O)ccc1Nc1c2ccccc2nc2ccccc12 [Amsacrine] (top concentration tested 10000 nM) | 6.68 | 11.1 | 25.2 | 26.9
28 | COc1cc2ncnc(Oc3cccc(NC(=O)Nc4cc(C(C)(C)C(F)(F)F)on4)c3)c2cc1OC (top concentration tested 10000 nM) | 0.44 | 0 | 1.53 | 2.4
29 | Cn1cc(-c2ccc3nnc(Sc4ccc5ncccc5c4)n3n2)cn1 [SGX-523] (top concentration tested 5000 nM) | 0.89 | 0 | 0 | 0.49
30 | Cc1cc2c(C(=O)NC[C@H](C)c3ccccc3)c(O)c(O)cc2c(O)c1-c1c(C)cc2c(C(=O)NC[C@H](C)c3ccccc3)c(O)c(O)cc2c1O [Sabutoclax] (top concentration tested 25000 nM) | 12.2 | 9.82 | 26.4 | 27.8
31 | CC[C@@H]1C(=O)N(C)c2cnc(Nc3ccc(C(=O)NC4CCN(C)CC4)cc3OC)nc2N1C1CCCC1 [BI 2536] (top concentration tested 1000 nM) | 2.98 | 20.1 | 23.5 | 24.7
32 | CNC(=O)CN1CCC(Oc2cc3c(Nc4cccc(Cl)c4F)ncnc3cc2OC)CC1 [Sapitinib] (top concentration tested 1000 nM) | 0 | 0 | 1.89 | 0
33 | CCCCCCCCc1ccc(CCC(N)(CO)CO)cc1 [Fingolimod] (top concentration tested 10000 nM) | 5.85 | 7.2 | 6.17 | 8.27
34 | Nc1ccn([C@@H]2O[C@H](CO)[C@@H](O)[C@@H]2O)c(=O)n1 [Cytarabine] (top concentration tested 10000 nM) | 0.18 | 1.75 | 8.82 | 13.3
35 | Cc1ccc(Nc2nccc(N(C)c3ccc4c(C)n(C)nc4c3)n2)cc1S(N)(=O)=O [Pazopanib] (top concentration tested 10000 nM) | 0 | 0 | 0.04 | 0.89
36 | CC(C)c1cc(C(=O)N2Cc3ccc(CN4CCN(C)CC4)cc3C2)c(O)cc1O [Onalespib] (top concentration tested 2500 nM) | 7.91 | 18.9 | 20.9 | 24.5
37 | CO[C@@H](C(=O)N1Cc2[nH]nc(NC(=O)c3ccc(N4CCN(C)CC4)cc3)c2C1)c1ccccc1 [Danusertib] (top concentration tested 10000 nM) | 0 | 11.8 | 6.46 | 7.14
38 | C[C@@H]1CCN(C(=O)CC#N)C[C@@H]1N(C)c1ncnc2[nH]ccc12 [Tofacitinib] (top concentration tested 5000 nM) | 0 | 0 | 0.07 | 0
39 | Cc1ccccc1C(C(=O)NC1CCCCC1)N(C(=O)Cn1ccnc1C)c1cccc(F)c1 (stereo not given) [AGI-5198] (top concentration tested 10000 nM) | 0 | 0 | 0.76 | 1.02
40 | CS(=O)(=O)c1ccc(C(=O)Nc2ccc(Cl)c(-c3ccccn3)c2)c(Cl)c1 [Vismodegib] (top concentration tested 10000 nM) | 0 | 0.14 | 0.91 | 0.09
41 | COc1cc2nccc(Oc3ccc(NC(=O)NC4CC4)c(Cl)c3)c2cc1C(N)=O [Lenvatinib] (top concentration tested 2500 nM) | 0 | 0 | 2.04 | 2.2
42 | CC(C)c1c(C(=O)Nc2ccccc2)c(-c2ccccc2)c(-c2ccc(F)cc2)n1CC[C@@H](O)C[C@@H](O)CC(=O)O [Atorvastatin] (top concentration tested 10000 nM) | 9.06 | 6.93 | 6.61 | 8.29
43 | CN(C[C@@H]1COCCO1)S(=O)(=O)Nc1ccc2ccc3ncc(-c4cnn(C)c4)cc3c(=O)c2c1 [MK-2461] (top concentration tested 10000 nM) | 0 | 0 | 3.63 | 3.5
44 | CNC(=O)c1cc(COc2nnc(Nc3ccc(Cl)cc3)c3ccoc23)ccn1 [Telatinib] (top concentration tested 10000 nM) | 0 | 2.32 | 2.07 | 0
45 | O=C(Cc1ccc(-c2ccc(OCCN3CCOCC3)cc2)cn1)NCc1ccccc1 [KX2-391] (top concentration tested 10000 nM) | 4.02 | 19.6 | 19.9 | 23.2
